Laboratory results from PMC7738869, “A novel STAT3 inhibitor W2014-S regresses human non-small cell lung cancer xenografts and sensitizes EGFR-TKI acquired resistance” (Theranostics, 2021).

Tests used:
PC-9/GR cells = assay: Cell apoptosis assay (Annexin V-FITC/PI flow cytometry), PC-9/GR; type: cell-based, human; settings: gefitinib 2 μM and/or W2014-S 1 μM, 72 h
Procedure: Briefly, aliquots of 2 × 10^5 cells were seeded into 6-well plates and incubated for 24 h at 37 °C. […] After trypsinization and gently washing cells once with medium, the cells were washed twice with cold PBS. The precipitation was resuspended by 400 μL of 1 × binding buffer, and then resuspended cells were transferred into new 1.5 mL EP tubes. Then 3 μL of Annexin V-FITC and 5 μL of propidium iodide were added to the resuspended cells with further incubation at room temperature for 15 min in the dark. The analysis was done on Guava easyCyte (USA) and FlowJo 7.6 software.

PC-9/GR xenografts = settings: gefitinib intragastric 20 mg/kg per day, W2014-S 10 mg/kg/day, 21 d
Procedure: For PDX model, the PDX sample was from The Jackson Laboratory. […] The tumor sample were cut into approximately 1 mm^3, and the tissue was pushed under skin of mice by TROCHAR. When tumor volumes reached approximately 100 mm^3, mice were randomly distributed into groups of 7 mice. […] Tumor size was measured every two days by vernier caliper. The average tumor volume in each group was calculated based on the equation for a prolate spheroid (tumor volume = (short-diameter)^2 × large-diameter × π / 6 ) and expressed in mm^3.

PC-9 cells [1] = assay: Cell viability assay (CCK-8), PC-9; type: cell-based; settings: Homo sapiens, PC-9, 72 h, read-out: IC50 cell proliferation
Procedure: (§1) Cell proliferation was measured using the Cell Counting Kit-8 (CCK-8, B34304, Bimake, USA). A549 (2 × 10^3/100 μL/well), PC-9 (3 × 10^3/100 μL/well) or PC-9/GR cells (3 × 10^3/100 μL/well) were plated into each well of 96-well plates (Costar, USA). […] Then, 10 μL of CCK-8 was added to each well, and cells were incubated for 1-4 h until the color of untreated controls turned to orange. The absorbance (A) was measured by a microplate reader (FLUOstar Omega-ACU, USA) at test and reference wavelengths of 450 nm. The percentage of growth was calculated as Cell viability (%) = [A (Compound +) - A (Blank) ] / [A (Compound -) - A (Blank) ] × 100%. Cell viability meant proliferation of cells. Each experiment was done at least in triplicate, and thrice independently.

A549 cells [2] = assay: Cell viability assay (CCK-8), A549; type: cell-based; settings: Homo sapiens, A549, 72 h, read-out: IC50 cell proliferation
Procedure: as §1

A549 cells [3] = assay: Transwell cell invasion assay, A549; settings: A549, 1 μM
Procedure: Transwell invasion assays were performed as previously reported [37] using Transwell chamber (Costar, USA). […] Data from triplicates experiments were pooled and plotted as shown.

PC-9 cells [4] = assay: Colony formation assay, PC-9; type: cell-based, human; settings: PC-9, as low as 0.3 μM
A549 cells [5] = assay: Colony formation assay, A549; type: cell-based, human; settings: A549, as low as 0.3 μM
A549 cells [6] = assay: Wound healing assay for migration; type: cell-based, human; settings: 48 h
Procedure: The motility of cells was measured by wound healing assay. Cells were seeded into 6-well plates and cultured to 90-100% confluent after 24 h. Wounds were made in each well of 6-well plates using pipette tips. […] The migration of cells was visualized under a microscope (4 ×, Nikon, Japan) and photographed in different time points (0 and 48 h).

[7] = target: full-length wild-type STAT3 (Homo sapiens, UniProt P40763); assay: Surface plasmon resonance analysis of binding to STAT3; settings: SPR
Procedure: Biacore 8K and Biacore Insight Evaluation software were used to analyze the interaction between the agents and the protein full-length wild-type STAT3 to detect the binding affinity. Purified STAT3 (100 μg/mL) without Tris and glycerin was injected onto the CM5 Chip (GE, USA) for immobilization. Several concentrations of W2014-S or W2014-R dissolved in running buffer (1×PBS with filtration, 0.01% DMSO) were flown over the chip to produce response signals. The kinetics and affinities were calculated by the Biacore Insight Evolution software, and the results were determined as the binding affinity (KD).

Chain of full-length wild-type STAT3 (P40763 whole entry): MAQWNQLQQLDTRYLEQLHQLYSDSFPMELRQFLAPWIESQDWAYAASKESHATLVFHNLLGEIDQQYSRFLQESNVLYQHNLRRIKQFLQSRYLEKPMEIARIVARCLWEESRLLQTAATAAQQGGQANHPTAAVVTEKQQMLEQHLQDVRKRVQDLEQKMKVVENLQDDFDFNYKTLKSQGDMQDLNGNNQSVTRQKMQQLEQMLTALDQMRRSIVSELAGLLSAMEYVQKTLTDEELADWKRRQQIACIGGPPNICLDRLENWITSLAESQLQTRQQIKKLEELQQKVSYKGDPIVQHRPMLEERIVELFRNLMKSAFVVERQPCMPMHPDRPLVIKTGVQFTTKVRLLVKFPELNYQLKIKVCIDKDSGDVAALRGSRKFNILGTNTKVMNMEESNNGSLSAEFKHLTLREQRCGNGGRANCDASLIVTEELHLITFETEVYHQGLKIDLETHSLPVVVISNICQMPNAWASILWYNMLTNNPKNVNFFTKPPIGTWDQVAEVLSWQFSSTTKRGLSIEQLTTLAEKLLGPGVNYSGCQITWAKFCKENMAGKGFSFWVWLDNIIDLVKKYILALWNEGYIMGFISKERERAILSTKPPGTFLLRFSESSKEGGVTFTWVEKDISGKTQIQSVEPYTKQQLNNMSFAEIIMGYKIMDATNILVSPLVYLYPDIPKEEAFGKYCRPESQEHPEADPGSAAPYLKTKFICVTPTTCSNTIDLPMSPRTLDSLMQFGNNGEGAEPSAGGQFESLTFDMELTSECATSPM

IC50 (PC-9 cells [1]) [nM] | IC50 (A549 cells [2]) [nM] | Kd [7] [nM] | Structure (SMILES) | Q1 (PC-9/GR cells) [%] | Q2 (PC-9/GR cells) [%] | Q3 (PC-9/GR cells) [%] | Q4 (PC-9/GR cells) [%] | xenograft tumor growth (PC-9/GR xenografts) | cell invasion (A549 cells [3]) | colony formation (PC-9 cells [4]) | colony formation (A549 cells [5]) | cell migration (A549 cells [6])
– | – | – | COc1cc2ncnc(Nc3ccc(F)c(Cl)c3)c2cc1OCCCN1CCOCC1 [Gefitinib, reference compound] | 0.103 | 4.61 | 3.05 | 92.2 | slight inhibitory effect | – | – | – | –
2660 | 2420 | 3390 | C[C@@H](Oc1ccc(-c2nc3nc(C4=CCN(C(=O)OC(C)(C)C)CC4)ccc3[nH]2)cc1)c1ccccc1 [W2014-R] | – | – | – | – | – | not | significantly suppressed the colony formation | significantly suppressed the colony formation | slightly inhibition
